Measurements from US12448388B2, “PRMT5 inhibitors and uses thereof” (Gilead Sciences, Inc., priority 2023, dated 2025).
≈ marks a conversion by molar mass, not a printed value. Where two headings read alike, the source gives them in different places.

Legend:
[1] = system: HCT116 MTAP-deleted cell lines; assay: Cell viability assay (CellTiter-Glo, 7 days), HCT116 MTAP-deleted; format: cell-based; conditions: for Selectivity: HCT116 WT CC50 versus HCT116 MTAP^del CC50; for plasma-adjusted CC50 (paCC50): paCC50 = CC50-HCT116-MTAP^del * (% free CCM/% free human plasma); for CC50: Homo sapiens, HCT116 MTAP-deleted
Method in brief: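 Dose-response, PRMT5 inhibitors from DMSO serial dilution, pre-spotted; cells seeded onto compound plates. 7 d, 37 °C/5% CO2/90% RH. Readout: CTG luminescence → CC50.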

[2] = MDR1/BCRP assay: permeability in cPgp-KO-MDCK-WT cells; format: in vitro ADME; conditions: dog, pH 7.4
Method in brief: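 Compounds at 1 μM were dosed apically or basolaterally on 5-day confluent cPgp-KO-MDCK monolayers, HBSS/HEPES/glucose pH 7.4 donor and receiver with 1% BSA, duplicate wells. Receiver samples at 2 h were analysed by LC-MS/MS to give A→B and B→A Papp plus % recovery; TEER confirmed integrity.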

[3] = PBS solubility (kinetic solubility from DMSO stocks); format: physicochemical; conditions: 22 °C, aqueous buffer, kinetic from dmso stock; 1x PBS pH 7.4, 1.0% DMSO, 24-hour incubation at ambient temperature
Method in brief: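 Kinetic solubility in 1× PBS pH 7.4 with 1.0% final DMSO, maximum theoretical concentration 100 μM from 10 mM stock. After 24 h at ambient temperature (20.8-24.0 °C) the samples were vacuum-filtered and filtrates quantified by nitrogen detection against a calibration curve. Values were background-corrected and reported in μM and μg/mL.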

[4] = HCT-116, * Calculated using Low throughput hEQDS
[5] = HCT-116, 168 h, 7 days of treatment, CTG, read-out: CC50-HCT116-MTAP^del
[6] = HCT-116, cell viability assay, class symbols, read-out: CC50
[7] = HCT-116, cell viability, class symbols, read-out: CC50

Row | SMILES | Selectivity [1] | plasma-adjusted CC50 (paCC50) [1, 4] [µM] | CC50 [1, 5] [µM] | CC50 [1, 6] [µM] | Papp A→B at 2 h, 1 µM [2] [×10⁻⁶ cm/s] | solubility at 24 h [3] [µM] | plasma-adjusted CC50 (paCC50) ([1]; HCT-116) [µM] | CC50 [1, 7] [µM]
1 | Nc1nc2cnc(C(=O)N3CCC[C@@H]4Oc5cc(OC(F)(F)F)cc(F)c5[C@@H]43)cc2n2cncc12 (single isomer, unassigned) [Fg-55] | 89 | 0.19 | 0.009 | < 0.1 | 9.5 | 13.7 (≈ 6.69 µg/mL) | – | –
2 | Cc1ncc2c(N)nc3cnc(C(=O)N4CCC[C@@H]5Oc6cc(OC(F)(F)F)ccc6[C@@H]54)cc3n12 [Ff-340, (4-amino-1-methylimidazo[1,5-a]pyrido[3,4-e]pyrazin-8-yl)((4aS,9bS)-7-(trifluoromethoxy)-3,4,4a,9b-tetrahydrobenzofuro[3,2-b]pyridin-1(2H)-yl)methanone] | 107 | – | 0.023 | – | 16.3 | < 1 | 0.298 | < 0.1
3 | C[C@H]1CN(C(=O)c2cc3c(cc2F)nc(N)c2cncn23)[C@H]2c3cc(F)c(C(F)F)cc3C[C@H]2O1 (single isomer, unassigned) [Ff-173] | 64 | – | 0.035 | – | 14.3 | 9.9 (≈ 4.81 µg/mL) | 1.16 | < 0.1
4 | Nc1nc2cnc(C(=O)N3CCC[C@@H]4Oc5cc(OC(F)(F)F)ccc5[C@@H]43)cc2n2cncc12 [Ff-341, (4-aminoimidazo[1,5-a]pyrido[3,4-e]pyrazin-8-yl)((4aS,9bS)-7-(trifluoromethoxy)-3,4,4a,9b-tetrahydrobenzofuro[3,2-b]pyridin-1(2H)-yl)methanone] | 79 | – | 0.009 | – | 10.3 | 1.7 (≈ 0.8 µg/mL) | 0.15 | < 0.1
5 | Nc1nc2cnc(C(=O)N3CC[C@H]4C[C@@H]3c3ccc(C(F)(F)F)cc3O4)cc2n2cncc12 [Ff-367, (4-aminoimidazo[1,5-a]pyrido[3,4-e]pyrazin-8-yl)((2S,6R)-9-(trifluoromethyl)-3,4-dihydro-2H-2,6-methanobenzo[b][1,5]oxazocin-5(6H)-yl)methanone] | 77 | – | 0.012 | – | 13.7 | 34.9 (≈ 15.9 µg/mL) | 0.199 | < 0.1
6 | C[C@H]1CN(C(=O)c2cc3c(cc2F)nc(N)c2cncn23)[C@H]2c3ccc(C(F)(F)F)cc3C[C@H]2O1 (single isomer, unassigned) [Ff-81] | 71 | 0.591 | 0.019 | – | 10.5 | 18.5 (≈ 8.98 µg/mL) | – | < 0.1
7 | C[C@@H]1CN(C(=O)c2cc3c(cc2F)nc(N)c2cncn23)[C@H]2c3cc(F)c(OC(F)(F)F)cc3C[C@H]2O1 (single isomer, unassigned) [Ff-197] | 47 | – | 0.015 | – | 16 | < 1 | 0.217 | < 0.1
8 | [2H]C1([2H])CC[C@@H]2Oc3cc(C(F)(F)F)ccc3[C@@H]2N1C(=O)c1cc2c(cn1)nc(N)c1cncn12 [Fg-60, (4-aminoimidazo[1,5-a]pyrido[3,4-e]pyrazin-8-yl)((4aS,9bS)-7-(trifluoromethyl)-3,4,4a,9b-tetrahydrobenzofuro[3,2-b]pyridin-1(2H)-yl-2,2-d2)methanone] | 98 | – | 0.007 | < 0.1 | 7 | – | – | –
9 | Nc1nc2ccc(C(=O)N3CCC[C@@H]4Oc5cc(C(F)(F)F)ccc5[C@@H]43)cc2n2cncc12 [Ff-111, (4-aminoimidazo[1,5-a]quinoxalin-8-yl)((4aS,9bS)-7-(trifluoromethyl)-3,4,4a,9b-tetrahydrobenzofuro[3,2-b]pyridin-1(2H)-yl)methanone] | 110 | – | 0.01 | – | 15.3 | 1.1 (≈ 0.499 µg/mL) | 0.139 | < 0.1
10 | Nc1nc2cnc(C(=O)N3CCC[C@@H]4Oc5cc(C(F)(F)F)ccc5[C@@H]43)cc2n2cncc12 [Ff-110, (4-aminoimidazo[1,5-a]pyrido[3,4-e]pyrazin-8-yl)((4aS,9bS)-7-(trifluoromethyl)-3,4,4a,9b-tetrahydrobenzofuro[3,2-b]pyridin-1(2H)-yl)methanone] | 86 | – | 0.006 | – | 12.1 | 1.7 (≈ 0.773 µg/mL) | 0.1 | < 0.1
11 | Nc1nc2cnc(C(=O)N3CC[C@H]4C[C@@H]3c3c(F)cc(C(F)(F)F)cc3O4)cc2n2cncc12 (single isomer, unassigned) [Ff-694] | 72 | – | 0.01 | – | 19.7 | 50.2 (≈ 23.7 µg/mL) | 0.12 | –
12 | Nc1nc2cnc(C(=O)N3CCC[C@@H]4Oc5c(ccc(C(F)(F)F)c5F)[C@@H]43)cc2n2cncc12 [Ff-109, (4-aminoimidazo[1,5-a]pyrido[3,4-e]pyrazin-8-yl)((4aS,9bS)-6-fluoro-7-(trifluoromethyl)-3,4,4a,9b-tetrahydrobenzofuro[3,2-b]pyridin-1(2H)-yl)methanone] | 92 | – | 0.015 | – | 12.2 | 2.3 (≈ 1.09 µg/mL) | 0.276 | < 0.1
13 | Nc1nc2cnc(C(=O)N3CC[C@H]4C[C@@H]3c3ccc(OC(F)(F)F)cc3O4)cc2n2cncc12 [Ff-685, (4-aminoimidazo[1,5-a]pyrido[3,4-e]pyrazin-8-yl)((2S,6R)-9-(trifluoromethoxy)-3,4-dihydro-2H-2,6-methanobenzo[b][1,5]oxazocin-5(6H)-yl)methanone] | 71 | – | 0.016 | < 0.1 | 11.2 | 16.1 (≈ 7.57 µg/mL) | 0.357 | –
14 | Nc1nc2cnc(C(=O)N3CCC[C@@H]4Oc5cc(C(F)(F)F)cc(F)c5[C@@H]43)cc2n2cncc12 (single isomer, unassigned) [Fg-53] | 84 | 0.139 | 0.006 | < 0.1 | 16.6 | 19.9 (≈ 9.4 µg/mL) | – | –
15 | Nc1nc2cc(F)c(C(=O)N3CCO[C@@H]4Cc5cc(C(F)(F)F)ccc5[C@@H]43)cc2n2cncc12 (single isomer, unassigned) [Ff-82] | 77 | – | 0.027 | – | 8.8 | 17.9 (≈ 8.44 µg/mL) | 0.408 | < 0.1
16 | Nc1nc2cnc(C(=O)N3CC[C@H]4C[C@@H]3c3ccc(C(F)(F)F)c(F)c3O4)cc2n2cncc12 [Ff-684, (4-aminoimidazo[1,5-a]pyrido[3,4-e]pyrazin-8-yl)((2S,6R)-10-fluoro-9-(trifluoromethyl)-3,4-dihydro-2H-2,6-methanobenzo[b][1,5]oxazocin-5(6H)-yl)methanone] | 93 | – | 0.014 | < 0.1 | 10.7 | 28.4 (≈ 13.4 µg/mL) | 0.465 | –
17 | Nc1nc2cc(F)c(C(=O)N3CCC[C@@H]4Oc5cc(C(F)(F)F)ccc5[C@@H]43)cc2n2cncc12 [Ff-104, (4-amino-7-fluoroimidazo[1,5-a]quinoxalin-8-yl)((4aS,9bS)-7-(trifluoromethyl)-3,4,4a,9b-tetrahydrobenzofuro[3,2-b]pyridin-1(2H)-yl)methanone] | 94 | 0.139 | 0.005 | – | – | < 1 | – | < 0.1
18 | Cc1ncn2c1c(N)nc1cnc(C(=O)N3CCC[C@@H]4Oc5cc(C(F)(F)F)ccc5[C@@H]43)cc12 [Ff-499, (4-amino-3-methylimidazo[1,5-a]pyrido[3,4-e]pyrazin-8-yl)((4aS,9bS)-7-(trifluoromethyl)-3,4,4a,9b-tetrahydrobenzofuro[3,2-b]pyridin-1(2H)-yl)methanone] | 69 | – | 0.013 | < 0.1 | 17.8 | < 1 | 0.168 | –
19 | Nc1nc2cnc(C(=O)N3CC4(CC4)C[C@@H]4Oc5cc(C(F)(F)F)ccc5[C@@H]43)cc2n2cncc12 [Ff-648, (4-aminoimidazo[1,5-a]pyrido[3,4-e]pyrazin-8-yl)((4aS,9bS)-7-(trifluoromethyl)-4a,9b-dihydro-2H-spiro[benzofuro[3,2-b]pyridine-3,1′-cyclopropan]-1(4H)-yl)methanone] | 72 | – | 0.009 | < 0.1 | 10.9 | 5.1 (≈ 2.45 µg/mL) | 0.262 | –
20 | C[C@@H]1CN(C(=O)c2cc3c(cc2F)nc(N)c2cncn23)[C@H]2c3ccc(OC(F)(F)F)cc3C[C@H]2O1 (single isomer, unassigned) [Ff-183] | 57 | – | 0.015 | – | 10.3 | 1.6 (≈ 0.802 µg/mL) | 0.257 | < 0.1
